# Source: publication PMC5800995 (Biochemical pharmacology, 2018)
# Target: human D2LR E95^2.65A (Homo sapiens, UniProt P14416, E95A)
# Assay: ERK1/2 phosphorylation, E95^2.65A
# Type: cell-based
# Conditions: for Schild slope: dopamine-mediated pERK1/2, competitive model; for Kb: read-out: KB Function (pERK1/2)
# human D2LR E95^2.65A, sequence (P14416 whole entry E95A): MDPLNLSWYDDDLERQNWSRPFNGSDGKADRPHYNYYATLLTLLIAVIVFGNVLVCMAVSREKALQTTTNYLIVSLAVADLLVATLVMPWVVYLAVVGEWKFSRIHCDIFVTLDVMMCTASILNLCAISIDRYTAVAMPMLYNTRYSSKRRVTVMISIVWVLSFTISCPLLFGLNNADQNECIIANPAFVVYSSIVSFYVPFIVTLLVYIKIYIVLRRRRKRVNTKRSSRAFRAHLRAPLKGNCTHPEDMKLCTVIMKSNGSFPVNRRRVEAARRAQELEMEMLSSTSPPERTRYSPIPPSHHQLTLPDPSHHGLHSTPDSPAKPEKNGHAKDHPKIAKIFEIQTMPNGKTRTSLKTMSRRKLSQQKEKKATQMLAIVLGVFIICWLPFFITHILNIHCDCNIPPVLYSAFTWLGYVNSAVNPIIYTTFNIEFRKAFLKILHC
Structure (SMILES),pKB Function (pERK1/2),Schild slope,Kb [nM],Logαβ (net cooperativity with dopamine),fold loss in functional affinity vs WT [fold],αβ (net cooperativity with dopamine),fold loss in negative cooperativity with dopamine vs WT (pERK1/2) [fold]
N#Cc1ccc2c(c1)CN(CCC1CCC(NC(=O)c3nc4ccccc4o3)CC1)CC2 (stereo not drawn) [MIPS1528],5.92 ± 0.07,1.68 ± 0.10,1200,,,,
N#Cc1ccc2c(c1)CN(CCC1CCC(NC(=O)c3ccc[nH]3)CC1)CC2 (stereo not drawn) [MIPS1576],7.02 ± 0.15,,95,−1.24 ± 0.10,24,0.06,
N#Cc1ccc2c(c1)CN(CCC1CCC(NC(=O)c3cc4cccnc4[nH]3)CC1)CC2 (stereo not drawn) [MIPS1588],5.90 ± 0.20,,1260,−1.12 ± 0.16,27,0.08,
O=C(N[C@H]1CC[C@H](CCN2CCc3ccccc3C2)CC1)c1cc2ccccc2[nH]1 [MIPS1278],4.21 ± 0.15,,61700,−0.30 ± 0.20,709,0.50,6
O=C(N[C@H]1CC[C@H](CCN2CCc3ccc(Br)cc3C2)CC1)c1cc2ccccc2[nH]1 [MIPS1556],5.96 ± 0.12,1.08 ± 0.09,,,,,
